Data on 4 compounds can be found in PMC10004634 (PLOS ONE, 2023).

Like-named read-outs stand apart in the source and are kept apart here.

Common to all, as to assay: biochemical
Holding throughout (set-up): KINOMEscan scanMAX competition binding, DNA-tagged kinases, qPCR read-out, percent control at 300 nM

One assay deals with SYK (Homo sapiens, UniProt P43405).
For the next assay, the target named is SRPK3 (Homo sapiens, UniProt Q9UPE1).
A further assay addresses T1, MAP4K2 (Homo sapiens, UniProt Q12851).
T1 sequence (Q12851 1-820): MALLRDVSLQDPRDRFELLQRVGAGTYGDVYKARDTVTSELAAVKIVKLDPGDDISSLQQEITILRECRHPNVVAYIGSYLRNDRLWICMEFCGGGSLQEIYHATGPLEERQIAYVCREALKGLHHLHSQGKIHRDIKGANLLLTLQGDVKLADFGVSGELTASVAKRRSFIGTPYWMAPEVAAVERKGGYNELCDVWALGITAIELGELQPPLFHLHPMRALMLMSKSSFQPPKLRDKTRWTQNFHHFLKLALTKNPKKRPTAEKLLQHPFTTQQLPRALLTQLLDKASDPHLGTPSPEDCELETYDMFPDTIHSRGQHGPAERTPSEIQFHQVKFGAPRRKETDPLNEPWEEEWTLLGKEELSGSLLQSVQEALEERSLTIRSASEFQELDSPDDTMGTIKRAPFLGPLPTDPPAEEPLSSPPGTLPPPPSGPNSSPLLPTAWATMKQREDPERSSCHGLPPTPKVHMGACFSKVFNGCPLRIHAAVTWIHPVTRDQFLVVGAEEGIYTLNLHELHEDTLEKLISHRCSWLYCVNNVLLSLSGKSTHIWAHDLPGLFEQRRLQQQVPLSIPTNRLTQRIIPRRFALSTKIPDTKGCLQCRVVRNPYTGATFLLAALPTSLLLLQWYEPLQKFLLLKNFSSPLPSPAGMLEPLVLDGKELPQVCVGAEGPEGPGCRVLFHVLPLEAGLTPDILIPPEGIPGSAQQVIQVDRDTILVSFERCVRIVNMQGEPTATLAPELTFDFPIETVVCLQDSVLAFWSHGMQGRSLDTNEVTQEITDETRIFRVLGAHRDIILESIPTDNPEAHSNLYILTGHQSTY

The target of another assay is T2, PIK3C2G (Homo sapiens, UniProt O75747).
T2 sequence (O75747 1-1486): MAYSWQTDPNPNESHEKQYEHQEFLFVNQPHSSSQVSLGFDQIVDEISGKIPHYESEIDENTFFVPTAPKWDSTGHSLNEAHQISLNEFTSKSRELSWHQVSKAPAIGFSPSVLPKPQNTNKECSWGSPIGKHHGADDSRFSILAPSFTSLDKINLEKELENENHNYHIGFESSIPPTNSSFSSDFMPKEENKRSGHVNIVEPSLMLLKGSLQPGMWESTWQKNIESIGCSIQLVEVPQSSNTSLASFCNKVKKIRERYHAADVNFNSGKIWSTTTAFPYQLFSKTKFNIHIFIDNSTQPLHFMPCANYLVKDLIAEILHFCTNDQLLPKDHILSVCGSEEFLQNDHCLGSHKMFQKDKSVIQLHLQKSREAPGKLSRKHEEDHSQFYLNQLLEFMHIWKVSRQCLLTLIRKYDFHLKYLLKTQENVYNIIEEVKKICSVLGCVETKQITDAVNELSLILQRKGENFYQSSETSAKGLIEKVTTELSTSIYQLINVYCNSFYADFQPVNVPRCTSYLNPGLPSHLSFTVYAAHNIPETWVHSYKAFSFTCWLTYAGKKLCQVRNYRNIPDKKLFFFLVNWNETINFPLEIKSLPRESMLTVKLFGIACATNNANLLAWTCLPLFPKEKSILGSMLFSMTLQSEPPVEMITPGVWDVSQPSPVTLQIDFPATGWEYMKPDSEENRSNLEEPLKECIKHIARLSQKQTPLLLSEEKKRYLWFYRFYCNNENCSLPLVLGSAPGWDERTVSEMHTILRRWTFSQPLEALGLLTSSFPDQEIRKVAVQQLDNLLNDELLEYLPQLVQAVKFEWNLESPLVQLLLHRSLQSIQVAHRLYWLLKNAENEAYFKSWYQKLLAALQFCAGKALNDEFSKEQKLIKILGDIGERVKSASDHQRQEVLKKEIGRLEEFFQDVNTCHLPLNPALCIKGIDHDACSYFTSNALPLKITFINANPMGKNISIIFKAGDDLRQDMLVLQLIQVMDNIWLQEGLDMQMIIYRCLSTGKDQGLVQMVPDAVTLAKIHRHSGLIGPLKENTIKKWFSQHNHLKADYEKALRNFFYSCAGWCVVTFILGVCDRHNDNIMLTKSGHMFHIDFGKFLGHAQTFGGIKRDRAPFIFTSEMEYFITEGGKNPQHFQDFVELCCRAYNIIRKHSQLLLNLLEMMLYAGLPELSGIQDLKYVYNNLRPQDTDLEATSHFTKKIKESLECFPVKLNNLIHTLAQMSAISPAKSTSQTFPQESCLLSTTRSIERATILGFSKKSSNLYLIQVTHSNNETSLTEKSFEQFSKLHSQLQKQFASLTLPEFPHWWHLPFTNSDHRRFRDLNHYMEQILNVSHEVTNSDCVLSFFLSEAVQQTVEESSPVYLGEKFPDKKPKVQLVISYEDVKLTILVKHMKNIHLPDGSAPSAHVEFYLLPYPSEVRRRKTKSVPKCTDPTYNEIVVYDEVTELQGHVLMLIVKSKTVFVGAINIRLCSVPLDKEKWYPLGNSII

[1] abbreviates: read-out: Percent control / Zanubrutinib.
Where [2] appears, read: read-out: Percent control / Tirabrutinib.
Where [3] appears, read: read-out: Percent control / Ibrutinib.
Setting [4] is: read-out: Percent control / Acalabrutinib.

Sequence of SRPK3 (Q9UPE1 whole entry): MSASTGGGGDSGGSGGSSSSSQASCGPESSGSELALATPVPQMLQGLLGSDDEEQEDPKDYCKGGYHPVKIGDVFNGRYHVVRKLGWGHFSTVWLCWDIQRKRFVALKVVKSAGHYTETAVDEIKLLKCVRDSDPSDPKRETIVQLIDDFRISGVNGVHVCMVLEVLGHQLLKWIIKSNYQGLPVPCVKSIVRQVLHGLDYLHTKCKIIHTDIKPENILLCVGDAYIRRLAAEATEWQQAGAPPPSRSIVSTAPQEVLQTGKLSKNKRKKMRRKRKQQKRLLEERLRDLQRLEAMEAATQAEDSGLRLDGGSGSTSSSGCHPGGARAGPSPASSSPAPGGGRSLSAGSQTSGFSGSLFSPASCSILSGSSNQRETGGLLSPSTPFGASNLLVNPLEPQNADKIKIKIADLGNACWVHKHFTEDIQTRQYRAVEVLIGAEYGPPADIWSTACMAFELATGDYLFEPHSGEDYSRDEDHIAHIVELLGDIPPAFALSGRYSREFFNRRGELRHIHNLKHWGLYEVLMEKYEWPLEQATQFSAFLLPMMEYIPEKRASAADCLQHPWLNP

Regarding `C=CC(=O)N1CCC([C@@H]2CCNc3c(C(N)=O)c(-c4ccc(Oc5ccccc5)cc4)nn32)CC1` [Zanubrutinib], the remaining binding at 0.3 µM at SYK (setting [1]) is 81%; on SRPK3 (setting [1]), 100%; on MAP4K2 (setting [1]) it was 43%; at PIK3C2G (setting [1]) it was 74%.
As to `CC#CC(=O)N1CC[C@@H](n2c(=O)n(-c3ccc(Oc4ccccc4)cc3)c3c(N)ncnc32)C1` [Tirabrutinib], the remaining binding at 0.3 µM at SYK (setting [2]) came out at 93%; at MAP4K2 (setting [2]) it was 80%; at PIK3C2G (setting [2]), 98%.
With `C=CC(=O)N1CCC[C@@H](n2nc(-c3ccc(Oc4ccccc4)cc3)c3c(N)ncnc32)C1` [Ibrutinib], the remaining binding at 0.3 µM at SRPK3 (setting [3]) was 96%; at MAP4K2 (setting [3]) it was 68%; at PIK3C2G (setting [3]), 97%.
Turning to `CC#CC(=O)N1CCC[C@H]1c1nc(-c2ccc(C(=O)Nc3ccccn3)cc2)c2c(N)nccn12` [Acalabrutinib], the remaining binding at 0.3 µM at SYK (setting [4]) was found to be 89%; at SRPK3 (setting [4]) it was 86%; on PIK3C2G (setting [4]) it was 74%.
